# Measurements taken from PubChem BioAssay (NCI).
#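 GI50 is the concentration that inhibits growth by half. The concentration for full growth arrest is given as TGI.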
# Assays:
# Experiment in all cases: NCI anticancer screen, dose series, 384-well format
# [1] = tested on: 786-0 renal
# [2] = tested on: A498 renal
# [3] = tested on: A549 NSCLC
# [4] = tested on: ACHN renal
# [5] = tested on: BT-549 breast
# [6] = tested on: CAKI-1 renal
# [7] = tested on: CCRF-CEM leukemia
# [8] = tested on: COLO 205 colon
# [9] = tested on: DU-145 prostate
# [10] = tested on: EKVX NSCLC
# [11] = tested on: HCC-2998 colon
# [12] = tested on: HCT-15 colon
# [13] = tested on: HL-60(TB) leukemia
# [14] = tested on: HOP-62 NSCLC
# [15] = tested on: HOP-92 NSCLC
# [16] = tested on: HS 578T breast
# [17] = tested on: HT29 colon
# [18] = tested on: IGROV1 ovarian
# [19] = tested on: K-562 leukemia
# [20] = tested on: KM12 colon
# [21] = tested on: LOX IMVI melanoma
# [22] = tested on: M14 melanoma
# [23] = tested on: MALME-3M melanoma
# [24] = tested on: MCF7 breast
# [25] = tested on: MDA-MB-231 breast
# [26] = tested on: MDA-MB-435 melanoma
# [27] = tested on: MDA-MB-468 breast
# [28] = tested on: MOLT-4 leukemia
# [29] = tested on: NCI-H226 lung
# [30] = tested on: NCI-H23 lung
# [31] = tested on: NCI-H322M lung
# [32] = tested on: NCI-H460 NSCLC
# [33] = tested on: NCI-H522 lung
# [34] = tested on: NCI/ADR-RES ovarian
# [35] = tested on: OVCAR-3 ovarian
# [36] = tested on: OVCAR-4 ovarian
# [37] = tested on: OVCAR-5 ovarian
# [38] = tested on: OVCAR-8 ovarian
# [39] = tested on: PC-3 prostate
# [40] = tested on: RPMI-8226 leukemia
# [41] = tested on: RXF 393 renal
# [42] = tested on: SF-268 CNS
# [43] = tested on: SF-295 CNS
# [44] = tested on: SF-539 CNS
# [45] = tested on: SK-MEL-28 melanoma
# [46] = tested on: SK-MEL-5 melanoma
# [47] = tested on: SK-OV-3 ovarian
# [48] = tested on: SN12C renal
# [49] = tested on: SNB-19 CNS
# [50] = tested on: SNB-75 CNS
# [51] = tested on: SR leukemia
# [52] = tested on: SW-620 colon
# [53] = tested on: T-47D breast
# [54] = tested on: TK-10 renal
# [55] = tested on: UACC-257 melanoma
# [56] = tested on: UACC-62 melanoma
# [57] = tested on: UO-31 renal
# [58] = tested on: HCT-116 colon
# [59] = tested on: U251 glioblastoma
structure (smiles),measurement,setting,value
Cc1cc2c(C(N)=O)cccc2n1-c1nc2c(c(NCc3ccccc3)n1)CCCN2,GI50,[1],173 nM
same,TGI,[1],314 nM
same,GI50,[2],162 nM
same,TGI,[2],303 nM
same,GI50,[3],182 nM
same,TGI,[3],339 nM
same,GI50,[4],157 nM
same,TGI,[4],397 nM
same,GI50,[5],193 nM
same,TGI,[5],342 nM
same,GI50,[6],170 nM
same,TGI,[6],317 nM
same,GI50,[7],162 nM
same,TGI,[7],299 nM
same,GI50,[8],193 nM
same,TGI,[8],339 nM
same,GI50,[9],195 nM
same,TGI,[9],351 nM
same,GI50,[10],162 nM
same,TGI,[10],303 nM
same,GI50,[11],166 nM
same,TGI,[11],305 nM
same,GI50,[12],155 nM
same,TGI,[12],295 nM
same,GI50,[13],162 nM
same,TGI,[13],300 nM
same,GI50,[14],167 nM
same,TGI,[14],305 nM
same,GI50,[15],154 nM
same,TGI,[15],290 nM
same,GI50,[16],78.8 nM
same,TGI,[16],204 nM
same,GI50,[17],168 nM
same,TGI,[17],310 nM
same,GI50,[18],168 nM
same,TGI,[18],315 nM
same,GI50,[19],134 nM
same,TGI,[19],269 nM
same,GI50,[20],168 nM
same,TGI,[20],310 nM
same,GI50,[21],101 nM
same,TGI,[21],220 nM
same,GI50,[22],170 nM
same,TGI,[22],309 nM
same,GI50,[23],151 nM
same,TGI,[23],284 nM
same,GI50,[24],142 nM
same,TGI,[24],343 nM
same,GI50,[25],181 nM
same,TGI,[25],323 nM
same,GI50,[26],178 nM
same,TGI,[26],320 nM
same,GI50,[27],223 nM
same,TGI,[27],369 nM
same,GI50,[28],150 nM
same,TGI,[28],284 nM
same,GI50,[29],102 nM
same,TGI,[29],220 nM
same,GI50,[30],134 nM
same,TGI,[30],263 nM
same,GI50,[31],200 nM
same,TGI,[31],374 nM
same,GI50,[32],177 nM
same,TGI,[32],324 nM
same,GI50,[33],125 nM
same,TGI,[33],252 nM
same,GI50,[34],182 nM
same,TGI,[34],323 nM
same,GI50,[35],138 nM
same,TGI,[35],270 nM
same,GI50,[36],184 nM
same,TGI,[36],325 nM
same,GI50,[37],183 nM
same,TGI,[37],326 nM
same,GI50,[38],159 nM
same,TGI,[38],296 nM
same,GI50,[39],188 nM
same,TGI,[39],331 nM
same,GI50,[40],20.8 nM
same,TGI,[40],41.5 nM
same,GI50,[41],78.5 nM
same,TGI,[41],206 nM
same,GI50,[42],174 nM
same,TGI,[42],313 nM
same,GI50,[43],154 nM
same,TGI,[43],290 nM
same,GI50,[44],167 nM
same,TGI,[44],305 nM
same,GI50,[45],177 nM
same,TGI,[45],318 nM
same,GI50,[46],34.9 nM
same,TGI,[46],106 nM
same,GI50,[47],246 nM
same,TGI,[47],497 nM
same,GI50,[48],175 nM
same,TGI,[48],315 nM
same,GI50,[49],191 nM
same,TGI,[49],336 nM
same,GI50,[50],194 nM
same,TGI,[50],338 nM
same,GI50,[51],115 nM
same,TGI,[51],238 nM
same,GI50,[52],176 nM
same,TGI,[52],316 nM
same,GI50,[53],162 nM
same,TGI,[53],299 nM
same,GI50,[54],179 nM
same,TGI,[54],362 nM
same,GI50,[55],173 nM
same,TGI,[55],313 nM
same,GI50,[56],129 nM
same,TGI,[56],258 nM
same,GI50,[57],171 nM
same,TGI,[57],318 nM
COC[C@H]1OC(=O)c2coc3c2[C@@]1(C)C1=C(C3=O)[C@@H]2CCC(=O)[C@@]2(C)C[C@H]1OC(C)=O,GI50,[1],26300 nM
same,TGI,[1],> 100000 nM
same,GI50,[2],4520 nM
same,TGI,[2],54300 nM
same,GI50,[3],7240 nM
same,TGI,[3],> 100000 nM
same,GI50,[4],7990 nM
same,TGI,[4],> 100000 nM
same,GI50,[5],3310 nM
same,TGI,[5],42800 nM
same,GI50,[6],7960 nM
same,TGI,[6],> 100000 nM
same,GI50,[7],7050 nM
same,TGI,[7],30600 nM
same,GI50,[8],26700 nM
same,TGI,[8],> 100000 nM
same,GI50,[9],25200 nM
same,TGI,[9],> 100000 nM
same,GI50,[10],5600 nM
same,TGI,[10],> 100000 nM
same,GI50,[11],3910 nM
same,TGI,[11],44600 nM
same,GI50,[58],16800 nM
same,TGI,[58],> 100000 nM
same,GI50,[12],11400 nM
same,TGI,[12],> 100000 nM
same,GI50,[13],975 nM
same,TGI,[13],2740 nM
same,GI50,[14],10900 nM
same,TGI,[14],> 100000 nM
same,GI50,[15],6120 nM
same,TGI,[15],> 100000 nM
same,GI50,[16],1600 nM
same,TGI,[16],12800 nM
same,GI50,[17],7880 nM
same,TGI,[17],> 100000 nM
same,GI50,[18],1180 nM
same,TGI,[18],11300 nM
same,GI50,[19],71900 nM
same,TGI,[19],> 100000 nM
same,GI50,[20],15400 nM
same,TGI,[20],> 100000 nM
same,GI50,[21],21100 nM
same,TGI,[21],> 100000 nM
same,GI50,[22],18200 nM
same,TGI,[22],> 100000 nM
same,GI50,[23],3900 nM
same,TGI,[23],42400 nM
same,GI50,[24],1340 nM
same,TGI,[24],> 100000 nM
same,GI50,[25],17600 nM
same,TGI,[25],> 100000 nM
same,GI50,[26],24700 nM
same,TGI,[26],> 100000 nM
same,GI50,[27],1460 nM
same,TGI,[27],7840 nM
same,GI50,[28],2300 nM
same,TGI,[28],13600 nM
same,GI50,[29],12500 nM
same,TGI,[29],> 100000 nM
same,GI50,[30],22100 nM
same,TGI,[30],> 100000 nM
same,GI50,[31],6910 nM
same,TGI,[31],> 100000 nM
same,GI50,[32],7170 nM
same,TGI,[32],> 100000 nM
same,GI50,[33],20300 nM
same,TGI,[33],> 100000 nM
same,GI50,[34],25000 nM
same,TGI,[34],> 100000 nM
same,GI50,[35],2740 nM
same,TGI,[35],32100 nM
same,GI50,[36],2360 nM
same,TGI,[36],> 100000 nM
same,GI50,[37],15400 nM
same,TGI,[37],> 100000 nM
same,GI50,[38],14700 nM
same,TGI,[38],> 100000 nM
same,GI50,[39],1440 nM
same,TGI,[39],> 100000 nM
same,GI50,[40],2390 nM
same,TGI,[40],9890 nM
same,GI50,[41],281 nM
same,TGI,[41],1820 nM
same,GI50,[42],4400 nM
same,TGI,[42],67900 nM
same,GI50,[43],7250 nM
same,TGI,[43],> 100000 nM
same,GI50,[44],22500 nM
same,TGI,[44],> 100000 nM
same,GI50,[45],9730 nM
same,TGI,[45],> 100000 nM
same,GI50,[46],4210 nM
same,TGI,[46],27900 nM
same,GI50,[47],8240 nM
same,TGI,[47],> 100000 nM
same,GI50,[48],11000 nM
same,TGI,[48],> 100000 nM
same,GI50,[49],50200 nM
same,TGI,[49],> 100000 nM
same,GI50,[50],1340 nM
same,TGI,[50],11700 nM
same,GI50,[51],1280 nM
same,TGI,[51],4280 nM
same,GI50,[52],28800 nM
same,TGI,[52],> 100000 nM
same,GI50,[53],4320 nM
same,TGI,[53],60300 nM
same,GI50,[54],12000 nM
same,TGI,[54],> 100000 nM
same,GI50,[59],67400 nM
same,TGI,[59],> 100000 nM
same,GI50,[55],13600 nM
same,TGI,[55],> 100000 nM
same,GI50,[57],3330 nM
same,TGI,[57],> 100000 nM
